Assay results taken from ChEMBL document CHEMBL5523756, “Molecular Transformers: Adaptive Multitarget Ligands for Esterase-Induced Transition from Analgesics to Anesthetics” (J Med Chem, 2024).
Activity calls are given as the source filed them.

Assays:
[1] = molecular target: T1, Sodium channel protein type 10 subunit alpha (Homo sapiens, UniProt Q9Y5Y9); assay: Inhibition of Nav1.8 channel (unknown origin) at -120 mV conditioning pulse by voltage clamp electrophysiological recording
[2] = Stability of compound assessed as porcine liver esterase mediated propofol release by measuring half life at 1 mg/ml by HPLC analysis; assay type: ADME, Sus scrofa; details: pig, isolated protein
[3] = molecular target: T1, Sodium channel protein type 10 subunit alpha; assay: Binding affinity to Nav1.8 (unknown origin) expressed in HEK293T cells assessed as retention time of compound at 1 mg/ml by cell membrane chromatography; assay type: cell membranes
Mus musculus [4] = assay: Analgesic effect in ICR mouse model of CFA-induced chronic inflammatory pain assessed as increase in paw withdrawal threshold at 0.07 mmol/kg, ip measured upto 90 mins by Von Frey test; assay type: functional, organism-based
[5] = Toxicity in ICR mouse assessed as survival rate at 1.5 times ED50 administered intravenously; details: in vivo, route iv
[6] = molecular target: T1, Sodium channel protein type 10 subunit alpha; assay: Binding affinity to Nav1.8 (unknown origin) expressed in HEK293T cells at 1 mg/ml by cell membrane chromatography; assay type: cell membranes
Mus musculus [7] = assay: Anesthetic effect in iv dosed ICR mouse by up-and-down method; assay type: functional
[8] = molecular target: GABA-A receptor; alpha-1/beta-2/gamma-2 (Homo sapiens) (UniProt P14867+P47870+P18507); assay: Agonist activity at alpha1beta2gamma2 GABA-A receptor (unknown origin) at 10 uM at -70 mV holding potential by electrophysiological recording; assay type: protein-complex assay; details: filed as agonist

T1 sequence (Q9Y5Y9 whole entry, looked up): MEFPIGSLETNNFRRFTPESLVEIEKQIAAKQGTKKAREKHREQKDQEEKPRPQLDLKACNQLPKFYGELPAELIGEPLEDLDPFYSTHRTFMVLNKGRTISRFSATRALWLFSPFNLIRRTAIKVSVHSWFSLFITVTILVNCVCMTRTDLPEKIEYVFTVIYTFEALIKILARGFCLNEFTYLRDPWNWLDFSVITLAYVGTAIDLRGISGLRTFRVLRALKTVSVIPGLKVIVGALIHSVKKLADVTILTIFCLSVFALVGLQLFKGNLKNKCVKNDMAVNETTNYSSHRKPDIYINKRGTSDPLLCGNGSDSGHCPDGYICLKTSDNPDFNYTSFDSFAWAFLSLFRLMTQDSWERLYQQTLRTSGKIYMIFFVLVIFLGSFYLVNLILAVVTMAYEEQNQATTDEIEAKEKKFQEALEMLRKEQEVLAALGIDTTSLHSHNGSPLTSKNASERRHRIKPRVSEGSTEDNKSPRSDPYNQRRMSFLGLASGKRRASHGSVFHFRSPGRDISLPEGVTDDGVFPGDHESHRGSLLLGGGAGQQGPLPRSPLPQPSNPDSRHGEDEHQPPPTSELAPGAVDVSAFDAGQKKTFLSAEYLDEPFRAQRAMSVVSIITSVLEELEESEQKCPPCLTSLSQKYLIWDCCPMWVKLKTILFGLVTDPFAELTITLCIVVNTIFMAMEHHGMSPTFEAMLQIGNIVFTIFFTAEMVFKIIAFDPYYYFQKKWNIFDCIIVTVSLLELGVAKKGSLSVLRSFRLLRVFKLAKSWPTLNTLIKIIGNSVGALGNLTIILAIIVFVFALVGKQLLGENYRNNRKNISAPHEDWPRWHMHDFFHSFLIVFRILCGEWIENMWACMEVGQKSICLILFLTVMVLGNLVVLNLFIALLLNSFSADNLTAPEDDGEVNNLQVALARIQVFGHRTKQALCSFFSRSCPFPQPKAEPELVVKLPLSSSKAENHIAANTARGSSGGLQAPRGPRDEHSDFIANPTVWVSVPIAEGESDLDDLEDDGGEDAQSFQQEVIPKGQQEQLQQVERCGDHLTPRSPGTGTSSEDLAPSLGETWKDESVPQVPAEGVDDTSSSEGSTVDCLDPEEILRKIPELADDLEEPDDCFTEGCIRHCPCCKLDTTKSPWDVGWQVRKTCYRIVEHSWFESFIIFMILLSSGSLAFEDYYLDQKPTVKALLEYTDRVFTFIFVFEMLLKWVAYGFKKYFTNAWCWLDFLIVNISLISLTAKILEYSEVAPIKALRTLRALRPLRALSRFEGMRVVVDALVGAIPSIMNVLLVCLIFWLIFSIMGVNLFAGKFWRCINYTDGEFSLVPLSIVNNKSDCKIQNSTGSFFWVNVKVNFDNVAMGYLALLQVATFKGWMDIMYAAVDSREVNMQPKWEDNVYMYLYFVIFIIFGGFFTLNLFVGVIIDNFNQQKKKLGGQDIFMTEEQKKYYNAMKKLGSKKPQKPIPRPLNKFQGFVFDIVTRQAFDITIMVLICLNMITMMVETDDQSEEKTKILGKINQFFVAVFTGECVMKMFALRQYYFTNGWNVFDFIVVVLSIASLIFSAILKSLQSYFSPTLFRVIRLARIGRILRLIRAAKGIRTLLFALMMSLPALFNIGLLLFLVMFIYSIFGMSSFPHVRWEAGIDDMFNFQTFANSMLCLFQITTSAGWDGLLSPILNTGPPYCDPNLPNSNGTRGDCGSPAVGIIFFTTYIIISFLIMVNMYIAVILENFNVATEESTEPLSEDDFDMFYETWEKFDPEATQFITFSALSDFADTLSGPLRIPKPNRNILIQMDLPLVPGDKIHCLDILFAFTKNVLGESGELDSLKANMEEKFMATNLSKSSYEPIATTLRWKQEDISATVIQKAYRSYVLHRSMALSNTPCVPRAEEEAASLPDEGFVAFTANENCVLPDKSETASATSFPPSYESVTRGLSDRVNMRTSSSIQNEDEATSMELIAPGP

CC(C)c1cccc(C(C)C)c1C(=O)c1ccc2c(CN(C)C)c[nH]c2c1
inhibition [1]: Active

COc1ccc(CNc2c(C(C)C)cccc2C(C)C)cc1OCC(N)=O
inhibition [1]: Active

COc1cc(-c2cc(C(=O)O)n[nH]2)ccc1Oc1c(C(C)C)cccc1C(C)C
inhibition [1]: Active

CC1CN(CC(=O)Oc2c(C(C)C)cccc2C(C)C)CC(C)O1.Cl (configuration not stated)
t1/2 [2]: 7.227 min | Retention time [3]: 0.5 min

Cc1nccn1Cc1ccc(C(=O)c2c(C(C)C)cccc2C(C)C)o1
inhibition [1]: Active

CCN1CCN(CCC(=O)Oc2c(C(C)C)cccc2C(C)C)CC1.Cl
t1/2 [2]: > 120 min

CC(C)c1cccc(C(C)C)c1OC1CCN(c2ccc(C(=O)O)cc2)CC1
inhibition [1]: Active

CC1CC(C)CN(CCOC(=O)Oc2c(C(C)C)cccc2C(C)C)C1.Cl (configuration not stated)
t1/2 [2]: 9.305 min | Retention time [3]: > 110 min

COCCN(CCOC)CCOC(=O)Oc1c(C(C)C)cccc1C(C)C.Cl
t1/2 [2]: 6.925 min

CC(C)c1cccc(C(C)C)c1OC(=O)CN1CCCCC1
Activity (Mus musculus [4]): Active | survival [5]: 100%

CC(C)c1cccc(C(C)C)c1OC(=O)CN1CCOCC1C (configuration not stated)
Retention time [3]: 0.8 min

CCCN(CCO)CCOC(=O)Oc1c(C(C)C)cccc1C(C)C.Cl
t1/2 [2]: < 8.609 min

CC1CC(C)CN(CCCOC(=O)Oc2c(C(C)C)cccc2C(C)C)C1.Cl (configuration not stated)
t1/2 [2]: 3.428 min

CC(C)c1cccc(C(C)C)c1C(=O)c1ccc(N(C)CCS(=O)(=O)O)cc1
Activity (Mus musculus [4]): Active | inhibition [1]: Active | Activity [6]: Active

CCN1CCN(CC(=O)Oc2c(C(C)C)cccc2C(C)C)CC1.Cl
t1/2 [2]: > 120 min

CC(C)c1cccc(C(C)C)c1OC(=O)CCN1CCOCC1
Retention time [3]: 0.9 min

CC1CC(C)CN(CC(=O)Oc2c(C(C)C)cccc2C(C)C)C1 (configuration not stated)
Retention time [3]: > 110 min

CC1CN(CCCOC(=O)Oc2c(C(C)C)cccc2C(C)C)CC(C)O1 (configuration not stated)
Retention time [3]: 12.4 min

COCCN(CCOC)CC(=O)Oc1c(C(C)C)cccc1C(C)C.Cl
t1/2 [2]: 6.712 min

CC(C)c1cccc(C(C)C)c1OC(=O)CN1CCN(C(C)C)CC1.Cl
t1/2 [2]: > 120 min

CC(C)c1cccc(C(C)C)c1OC(=O)OCCN1CCCCC1
Retention time [3]: 1 min

CC(C)c1cccc(C(C)C)c1OC(=O)CCN1CCN(C(C)C)CC1.Cl
t1/2 [2]: > 120 min

CC(C)c1cccc(C(C)C)c1Oc1ccc(C[C@@H](N)C(N)=O)cc1
inhibition [1]: Active

CC(C)c1cccc(C(C)C)c1C(=O)CSc1cccc[n+]1[O-]
inhibition [1]: Active

CC(C)c1cccc(C(C)C)c1OC(=O)CN1CCOCC1
Retention time [3]: 0.5 min

CC(C)c1cccc(C(C)C)c1OC(=O)CN1CCSCC1.Cl
t1/2 [2]: 22.97 min

CCN(CC)CCC(=O)Oc1c(C(C)C)cccc1C(C)C.Cl
t1/2 [2]: 3.288 min | Retention time [3]: 18.5 min | ED50 (Mus musculus [7]): 64 µmol/kg | Activity (Mus musculus [4]): Active | survival [5]: 100%

CCN(CC)CC(=O)Oc1c(C(C)C)cccc1C(C)C.Cl
t1/2 [2]: 4.07 min | Retention time [3]: 11.4 min | ED50 (Mus musculus [7]): 77 µmol/kg | Activity (Mus musculus [4]): Active | survival [5]: 100%

CC(C)c1cccc(C(C)C)c1OC(=O)OCCN1CCN(C(C)C)CC1.Cl
t1/2 [2]: > 120 min

CC(C)c1cccc(C(C)C)c1O
Activity (Mus musculus [4]): inactive | Activity [8]: Active

CC1CN(CCOC(=O)Oc2c(C(C)C)cccc2C(C)C)CC(C)O1 (configuration not stated)
Retention time [3]: 11.8 min

CC1CN(CCC(=O)Oc2c(C(C)C)cccc2C(C)C)CC(C)O1.Cl (configuration not stated)
t1/2 [2]: 1.429 min | Retention time [3]: 3.1 min

CC(C)c1cccc(C(C)C)c1OC(=O)CN1CCS(=O)(=O)CC1.Cl
t1/2 [2]: > 30 min

Cc1cc(COc2c(C(C)C)cccc2C(C)C)cc(C)c1CN
inhibition [1]: Active

Cc1cc(F)ccc1Oc1cc(C(F)(F)F)ccc1C(=O)Nc1ccn(COP(=O)(O)O)c(=O)c1
Retention time [3]: 2.6 min

CC(C)c1cccc(C(C)C)c1OC(=O)CN1CCN(CCO)CC1.Cl
t1/2 [2]: > 120 min

CCN1CCN(CCOC(=O)Oc2c(C(C)C)cccc2C(C)C)CC1.Cl
t1/2 [2]: 4.684 min

CC(C)c1cccc(C(C)C)c1OC(=O)OCCN1CCSCC1.Cl
t1/2 [2]: 4.03 min

CCN(CC)CCCOC(=O)Oc1c(C(C)C)cccc1C(C)C.Cl
t1/2 [2]: < 8.609 min | Retention time [3]: 37.1 min

Cc1cc(C(=O)c2c(C(C)C)cccc2C(C)C)ccc1N1C(=O)C=CC1=O
inhibition [1]: Active

CC(C)c1cccc(C(C)C)c1OC(=O)OCCN1CCN(CCO)CC1.Cl
t1/2 [2]: 63.54 min
